Results reported in ChEMBL document CHEMBL5131384, “Design, synthesis, and biological evaluation of indole-based hydroxamic acid derivatives as histone deacetylase inhibitors” (Eur J Med Chem, 2022).
Calls of active or inactive are those of the source. No cut-off for these calls is given here.

Legend:
[1] = biological target: Histone deacetylase 1 (Homo sapiens, UniProt Q13547); experiment: Inhibition of HDAC1 (unknown origin) using Boc-Lys(Ac)-AMC as substrate incubated for 60 mins by fluorescence plate reader assay
[2] = biological target: T1, Protein deacetylase HDAC6 (Homo sapiens, UniProt Q9UBN7); experiment: Inhibition of HDAC6 (unknown origin) using Boc-Lys(Ac)-AMC as substrate incubated for 60 mins by fluorescence plate reader assay
T1 sequence (Q9UBN7 whole entry): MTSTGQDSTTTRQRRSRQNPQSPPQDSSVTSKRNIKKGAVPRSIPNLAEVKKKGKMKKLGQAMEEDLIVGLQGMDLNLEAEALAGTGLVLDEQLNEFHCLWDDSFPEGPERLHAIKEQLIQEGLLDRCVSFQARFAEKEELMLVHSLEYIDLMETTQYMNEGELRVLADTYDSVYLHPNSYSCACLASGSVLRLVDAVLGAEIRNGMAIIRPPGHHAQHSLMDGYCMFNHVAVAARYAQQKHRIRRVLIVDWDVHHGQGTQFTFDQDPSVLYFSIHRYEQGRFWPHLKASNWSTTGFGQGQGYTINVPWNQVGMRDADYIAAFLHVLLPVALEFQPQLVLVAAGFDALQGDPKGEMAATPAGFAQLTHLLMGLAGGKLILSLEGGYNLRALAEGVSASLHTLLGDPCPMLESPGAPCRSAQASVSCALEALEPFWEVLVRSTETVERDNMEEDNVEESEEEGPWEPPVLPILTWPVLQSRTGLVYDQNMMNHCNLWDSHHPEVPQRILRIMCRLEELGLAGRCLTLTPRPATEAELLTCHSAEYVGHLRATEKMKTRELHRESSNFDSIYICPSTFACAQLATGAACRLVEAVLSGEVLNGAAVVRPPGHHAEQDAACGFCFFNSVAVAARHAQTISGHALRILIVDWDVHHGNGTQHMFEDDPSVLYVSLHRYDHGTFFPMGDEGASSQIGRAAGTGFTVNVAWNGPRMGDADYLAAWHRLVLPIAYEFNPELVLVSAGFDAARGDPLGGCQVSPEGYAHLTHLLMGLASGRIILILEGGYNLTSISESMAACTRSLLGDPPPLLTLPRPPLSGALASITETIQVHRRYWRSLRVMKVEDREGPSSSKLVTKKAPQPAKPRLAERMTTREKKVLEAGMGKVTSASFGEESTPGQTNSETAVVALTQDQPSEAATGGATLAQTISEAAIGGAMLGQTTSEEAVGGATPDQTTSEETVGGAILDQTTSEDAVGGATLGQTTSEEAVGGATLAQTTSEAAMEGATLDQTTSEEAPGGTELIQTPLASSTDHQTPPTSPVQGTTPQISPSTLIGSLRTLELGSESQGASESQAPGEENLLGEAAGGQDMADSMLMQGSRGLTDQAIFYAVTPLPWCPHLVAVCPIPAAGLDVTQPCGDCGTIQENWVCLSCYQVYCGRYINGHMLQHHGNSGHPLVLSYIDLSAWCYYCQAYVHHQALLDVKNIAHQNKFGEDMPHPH

[3] = test system: A549; experiment: Antiproliferative activity against human A549 cells assessed as reduction in cell viability incubated for 72 hrs by WST-8 assay; type: functional, cell-based; settings: A549, 72 h
[4] = test system: MDA-MB-231; experiment: Antiproliferative activity against human MDA-MB-231 cells assessed as reduction in cell viability incubated for 72 hrs by WST-8 assay; type: functional, cell-based; settings: MDA-MB-231, 72 h
[5] = test system: SGC-7901; experiment: Antiproliferative activity against human SGC-7901 cells assessed as reduction in cell viability incubated for 72 hrs by WST-8 assay; type: functional, cell-based; settings: SGC-7901, 72 h
[6] = test system: HCT-116; experiment: Antiproliferative activity against human HCT-116 cells assessed as reduction in cell viability incubated for 72 hrs by WST-8 assay; type: functional, cell-based; settings: HCT-116, 72 h
[7] = test system: HL-60; experiment: Antiproliferative activity against human HL-60 cells assessed as reduction in cell viability incubated for 72 hrs by WST-8 assay; type: functional, cell-based; settings: HL-60, 72 h
[8] = biological target: T2, Histone deacetylase (Homo sapiens) (UniProt Q13547+O15379+Q9UBN7+Q92769+Q9UQL6+Q8WUI4+Q9BY41+Q96DB2+P56524+Q9UKV0+Q969S8); experiment: Inhibition of HDAC in human HCT-116 cells assessed as upregulation of acetylated H3 level at 0.1 to 1 uM incubated for 48 hrs by Western blot analysis; type: cell-based; settings: dose 0.1-1 µM, DDE = dose-dependent effect
[9] = biological target: T2, Histone deacetylase (Homo sapiens); experiment: Inhibition of HDAC in human HCT-116 cells assessed as upregulation of acetylated alpha-tubulin level 0.1 to 1 uM incubated for 48 hrs by Western blot analysis; type: cell-based; settings: dose 0.1-1 µM, DDE = dose-dependent effect
[10] = test system: HCT-116; experiment: Induction of apoptosis in human HCT-116 cells assessed as early apoptotic cells at 0.1 uM incubated for 48 hrs by Annexin V-FITC/propidium iodide staining-based flow cytometric analysis (reference value: 1.73 %); type: functional
[11] = test system: HCT-116; experiment: Induction of apoptosis in human HCT-116 cells assessed as early apoptotic cells at 1 uM incubated for 48 hrs by Annexin V-FITC/propidium iodide staining-based flow cytometric analysis (reference value: 1.73 %); type: functional
[12] = test system: HCT-116; experiment: Induction of apoptosis in human HCT-116 cells assessed as late apoptotic cells at 0.1 uM incubated for 48 hrs by Annexin V-FITC/propidium iodide staining-based flow cytometric analysis (reference value: 5.80 %); type: functional
[13] = test system: HCT-116; experiment: Induction of apoptosis in human HCT-116 cells assessed as late apoptotic cells at 1 uM incubated for 48 hrs by Annexin V-FITC/propidium iodide staining-based flow cytometric analysis (reference value: 5.80 %); type: functional
[14] = test system: HCT-116; experiment: Induction of apoptosis in human HCT-116 cells at 0.1 to 1 uM incubated for 48 hrs by Annexin V-FITC/propidium iodide staining-based flow cytometric analysis; type: functional, cell-based; settings: dose 0.1-1 µM, DDE = dose-dependent effect
[15] = test system: HCT-116; experiment: Induction of apoptosis in human HCT-116 cells assessed as increase in cleaved PARP level at 0.1 to 1 uM incubated for 48 hrs by Western blot analysis; type: functional, cell-based; settings: dose 0.1-1 µM
[16] = test system: HCT-116; experiment: Induction of cell cycle arrest in human HCT-116 cells assessed as accumulation of cells at G2/M phase at 0.1 to 1 uM incubated for 24 hrs by flow cytometry analysis; type: functional, cell-based; settings: dose 0.1-1 µM, DDE = dose-dependent effect
[17] = test system: HCT-116; experiment: Inhibition of colony formation in human HCT-116 cells at 3 to 10 nM drug medium changed every three days for 2 weeks by crystal violet staining based analysis; type: functional, cell-based; settings: dose 3-10 nM, DDE = dose-dependent effect
[18] = test system: HCT-116; experiment: Inhibition of colony formation in human HCT-116 cells assessed as reduction in number of colonies at 3 nM drug medium changed every three days for 2 weeks by crystal violet staining based analysis; type: functional, cell-based
[19] = test system: HCT-116; experiment: Inhibition of colony formation in human HCT-116 cells assessed as reduction in size of colonies at 3 nM drug medium changed every three days for 2 weeks by crystal violet staining based analysis; type: functional, cell-based
[20] = test system: HCT-116; experiment: Inhibition of colony formation in human HCT-116 cells assessed as blockage of anchor growth at 10 nM drug medium changed every three days for 2 weeks by crystal violet staining based analysis; type: functional; settings: HCT-116, 336 h
[21] = test system: HCT-116; experiment: Antitumor activity against human HCT-116 cells xenografted in BALB/c mouse assessed as inhibition of tumor growth at 20 mg/kg, ip adminstered once daily measured every three days for 15 days by vernier caliper method relative to control; type: functional; design: scale not given: the % may be the effect or the level left; settings: time 15 day
[22] = test system: HCT-116; experiment: Antitumor activity against human HCT-116 cells xenografted in BALB/c mouse assessed as inhibition of tumor growth at 40 mg/kg, ip adminstered once daily measured every three days for 15 days by vernier caliper method relative to control; type: functional; design: scale not given: the % may be the effect or the level left; settings: time 15 day
[23] = Toxicity in BALB/c mouse assessed as body weight loss at 20 to 40 mg/kg, ip adminstered once daily for 15 days; type: organism-based; settings: in vivo, 360 h, dose 20-40 mg/kg, time 15 day
[24] = Toxicity in BALB/c mouse assessed as drug tolerability at 20 to 40 mg/kg, ip adminstered once daily for 15 days; type: organism-based; settings: in vivo, 360 h, dose 20-40 mg/kg, time 15 day
[25] = test system: Mus musculus; experiment: In vivo inhibition of HDAC in BALB/c mouse xenografted with HCT-116 cells assessed as upregulation of acetylated H3 expression at 20 to 40 mg/kg, ip for 15 days by Western blot analysis; type: functional, organism-based; settings: dose 20-40 mg/kg, time 15.0 day, DDE = dose-dependent effect
[26] = test system: Mus musculus; experiment: In vivo inhibition of HDAC in HCT-116 cells xenografted in BALB/c mouse assessed as upregulation of alpha tubulin expression at 20 to 40 mg/kg, ip for 15 days by Western blot analysis; type: functional, organism-based; settings: dose 20-40 mg/kg, time 15.0 day, DDE = dose-dependent effect
[27] = test system: HCT-116; experiment: Induction of cell cycle arrest in human HCT-116 cells assessed as increase in accumulation of cells at G2/M phase at 1 uM incubated for 24 hrs by flow cytometry analysis; type: functional, cell-based
[28] = test system: HCT-116; experiment: Induction of cell cycle arrest in human HCT-116 cells assessed as decrease in accumulation of cells at S phase at 1 uM incubated for 24 hrs by flow cytometry analysis; type: functional, cell-based

Chain of Histone deacetylase 1 (Q13547 whole entry): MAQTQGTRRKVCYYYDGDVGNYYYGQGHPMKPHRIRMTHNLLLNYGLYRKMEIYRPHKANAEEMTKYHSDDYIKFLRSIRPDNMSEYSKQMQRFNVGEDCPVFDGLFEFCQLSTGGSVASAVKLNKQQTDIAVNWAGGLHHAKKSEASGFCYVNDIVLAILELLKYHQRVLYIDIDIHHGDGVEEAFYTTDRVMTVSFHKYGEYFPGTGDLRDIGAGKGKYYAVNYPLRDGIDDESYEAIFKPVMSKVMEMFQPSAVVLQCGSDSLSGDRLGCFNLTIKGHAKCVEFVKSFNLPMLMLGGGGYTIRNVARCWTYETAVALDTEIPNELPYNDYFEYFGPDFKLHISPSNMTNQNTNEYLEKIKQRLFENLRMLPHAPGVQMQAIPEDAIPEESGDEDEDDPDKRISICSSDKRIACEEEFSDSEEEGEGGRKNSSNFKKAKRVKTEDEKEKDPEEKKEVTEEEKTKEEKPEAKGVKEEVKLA

Structure (SMILES)	IC50 [1] [nM]	IC50 [2] [nM]	IC50 [3] [nM]	IC50 [4] [nM]	IC50 [5] [nM]	IC50 [6] [nM]	IC50 [7] [nM]	further results
COc1ccc2c(c1)cc(C(=O)NC1C3CC4CC(C3)CC1C4)n2CCCCCCC(=O)NO (stereo not drawn)	1.16	2.3	960	460	40	140	20	Activity [8]: Dde; Activity [9]: Dde; Activity [10]: 2.59%; Activity [11]: 3.34%; Activity [12]: 29.9%; Activity [13]: 48.8%; Activity [14]: Dde; Activity [15]: Active; Activity [16]: Dde; inhibition [17]: Dde; inhibition [18]: Active; inhibition [19]: Active; inhibition at 0.01 µM [20]: 100%; Activity [21]: 44.54%; Activity [22]: 71.79%; Activity [23]: Non-Toxic; Activity [24]: Non-Toxic; Activity [25]: Dde; Activity [26]: Dde
O=C(CCCCCn1cc(C(=O)NC2C3CC4CC(C3)CC2C4)c2ccccc21)NO (stereo not drawn)	67.4	10.4	–	–	–	–	–	–
O=C(CCCCCCn1c(C(=O)NC2C3CC4CC(C3)CC2C4)cc2cc(Cl)ccc21)NO (stereo not drawn)	2.16	6.84	–	–	–	–	–	–
O=C(CCCCCCn1cc(C(=O)NC23CC4CC(CC(C4)C2)C3)c2ccccc21)NO	1.16	1.92	> 100000	20800	14700	45000	1050	–
O=C(CCCCCCn1c(C(=O)NC2C3CC4CC(C3)CC2C4)nc2ccccc21)NO (stereo not drawn)	1.68	5.25	–	–	–	–	–	–
O=C(CCCCCCn1nc(C(=O)NC2C3CC4CC(C3)CC2C4)c2ccccc21)NO (stereo not drawn)	2.96	2.72	–	–	–	–	–	–
CC(=O)SCCCCCCn1cc(C(=O)NC2C3CC4CC(C3)CC2C4)c2ccccc21 (stereo not drawn)	> 1000	> 1000	–	–	–	–	–	–
O=C(CCCCCCn1cc(C(=O)NC2C3CC4CC(C3)CC2C4)c2ccccc21)NO (stereo not drawn)	2.04	1.7	–	–	–	–	–	–
O=C(CCCCCCn1cc(C(=O)NC2CCCCC2)c2ccccc21)NO	1.56	2.32	> 100000	> 100000	25400	15000	8500	–
O=C(CCCCCCn1c(C(=O)NC2C3CC4CC(C3)CC2C4)cc2ccc(Br)cc21)NO (stereo not drawn)	3.16	4.64	920	1770	180	630	510	–
O=C(CCCCCCn1cc(C(=O)Nc2ccc(Cl)cc2Cl)c2ccccc21)NO	2.53	3.73	47000	16200	2590	4500	10500	–
O=C(CCCCn1cc(C(=O)NC2C3CC4CC(C3)CC2C4)c2ccccc21)NO (stereo not drawn)	53.6	39.9	–	–	–	–	–	–
O=C(NO)c1ccc(Cn2cc(C(=O)NC3C4CC5CC(C4)CC3C5)c3ccccc32)cc1 (stereo not drawn)	115	5.29	–	–	–	–	–	–
O=C(CCCCCCn1cc(C(=O)NC2CCCCCCC2)c2ccccc21)NO	1.31	1.8	> 100000	> 100000	67000	> 100000	21500	–
O=C(NC1C2CC3CC(C2)CC1C3)c1cn(CCCCCCS)c2ccccc12 (stereo not drawn)	169	19	–	–	–	–	–	–
CC(=O)SCCCCCCCn1cc(C(=O)NC2C3CC4CC(C3)CC2C4)c2ccccc21 (stereo not drawn)	> 1000	> 1000	–	–	–	–	–	–
O=C(NC1C2CC3CC(C2)CC1C3)c1cn(CCCCCCCS)c2ccccc12 (stereo not drawn)	188	232	–	–	–	–	–	–
O=C(CCCCCCn1cc(C(=O)N2CCOCC2)c2ccccc21)NO	8.95	7.59	–	–	–	–	–	–
O=C(CCCCCCn1cc(C(=O)NCc2ccc(Cl)cc2)c2ccccc21)NO	2.31	1.56	> 100000	> 100000	> 100000	> 100000	72900	–
O=C(CCCCCCC(=O)Nc1ccccc1)NO [VORINOSTAT]	–	–	–	–	–	3590	–	Activity [11]: 3.2%; Activity [13]: 36.2%; Activity [27]: Active; Activity [28]: Active
O=C(/C=C/c1ccc(Cn2cc(C(=O)NC3C4CC5CC(C4)CC3C5)c3ccccc32)cc1)NO (stereo not drawn)	143	73.3	–	–	–	–	–	–
O=C(CCCCCCn1c(C(=O)NC2C3CC4CC(C3)CC2C4)cc2ccccc21)NO (stereo not drawn)	2.1	2.43	60800	42600	6800	13800	5740	–
O=C(CCCCCCn1cc(C(=O)NC2CCCCCC2)c2ccccc21)NO	2	2.11	–	–	–	–	–	–
